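Assay format: 96-well plates, 48-hour exposure. GI50 = concentration required for 50% inhibition of growth. TGI: total growth inhibition.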
Assays:
Assay in all cases: NCI tumour cell line growth inhibition, 48 h
KM12 colon = tested on: KM12 colon
SK-MEL-5 melanoma = tested on: SK-MEL-5 melanoma
SNB-19 CNS = tested on: SNB-19 CNS
SK-OV-3 ovarian = tested on: SK-OV-3 ovarian
NCI-H23 lung = tested on: NCI-H23 lung
A549 NSCLC = tested on: A549 NSCLC
COLO 205 colon = tested on: COLO 205 colon
UACC-62 melanoma = tested on: UACC-62 melanoma
MOLT-4 leukemia = tested on: MOLT-4 leukemia
NCI-H460 lung = tested on: NCI-H460 lung
ACHN renal = tested on: ACHN renal
HOP-92 NSCLC = tested on: HOP-92 NSCLC
SN12C renal = tested on: SN12C renal
SK-MEL-28 melanoma = tested on: SK-MEL-28 melanoma
EKVX NSCLC = tested on: EKVX NSCLC
NCI/ADR-RES ovarian = tested on: NCI/ADR-RES ovarian
OVCAR-5 ovarian = tested on: OVCAR-5 ovarian
U251 CNS = tested on: U251 CNS
LOX IMVI melanoma = tested on: LOX IMVI melanoma
OVCAR-3 ovarian = tested on: OVCAR-3 ovarian
K-562 leukemia = tested on: K-562 leukemia
MDA-MB-231 breast = tested on: MDA-MB-231 breast
RXF 393 renal = tested on: RXF 393 renal
HCC-2998 colon = tested on: HCC-2998 colon
OVCAR-8 ovarian = tested on: OVCAR-8 ovarian
SF-539 CNS = tested on: SF-539 CNS
PC-3 prostate = tested on: PC-3 prostate
MDA-MB-435 = tested on: MDA-MB-435
HT29 colon = tested on: HT29 colon
SNB-75 CNS = tested on: SNB-75 CNS
DU-145 prostate = tested on: DU-145 prostate
SK-MEL-2 melanoma = tested on: SK-MEL-2 melanoma
MALME-3M melanoma = tested on: MALME-3M melanoma
UO-31 renal = tested on: UO-31 renal
IGROV1 ovarian = tested on: IGROV1 ovarian
M14 melanoma = tested on: M14 melanoma
786-0 renal = tested on: 786-0 renal
UACC-257 melanoma = tested on: UACC-257 melanoma
HS 578T breast = tested on: HS 578T breast
SW-620 colon = tested on: SW-620 colon
HCT-15 colon = tested on: HCT-15 colon
OVCAR-4 ovarian = tested on: OVCAR-4 ovarian
MCF7 breast = tested on: MCF7 breast
TK-10 renal = tested on: TK-10 renal
HOP-62 NSCLC = tested on: HOP-62 NSCLC
T-47D breast = tested on: T-47D breast
MDA-MB-468 breast = tested on: MDA-MB-468 breast
CCRF-CEM leukemia = tested on: CCRF-CEM leukemia
HCT-116 colon = tested on: HCT-116 colon
SF-295 CNS = tested on: SF-295 CNS
SF-268 CNS = tested on: SF-268 CNS
HL-60(TB) leukemia = tested on: HL-60(TB) leukemia
CAKI-1 renal = tested on: CAKI-1 renal
BT-549 breast = tested on: BT-549 breast
NCI-H226 lung = tested on: NCI-H226 lung
NCI-H522 lung = tested on: NCI-H522 lung
SR leukemia = tested on: SR leukemia
RPMI-8226 leukemia = tested on: RPMI-8226 leukemia
A498 renal = tested on: A498 renal

Compound: O=C(c1ccc(O)cc1)C1[C@H](c2ccc(Cl)cc2)[C@@H](c2ccccc2)NC12C(=O)Nc1ccccc12 (stereo partly drawn)
- GI50 (KM12 colon): 7.65 µM
- TGI (KM12 colon): 16.1 µM
- GI50 (SK-MEL-5 melanoma): 6.91 µM
- TGI (SK-MEL-5 melanoma): 12.7 µM
- GI50 (SNB-19 CNS): 6.71 µM
- TGI (SNB-19 CNS): 12.4 µM
- GI50 (SK-OV-3 ovarian): 7.32 µM
- TGI (SK-OV-3 ovarian): 14 µM
- GI50 (NCI-H23 lung): 6.29 µM
- TGI (NCI-H23 lung): 12.3 µM
- GI50 (A549 NSCLC): 5.8 µM
- TGI (A549 NSCLC): 12.2 µM
- GI50 (COLO 205 colon): 7.17 µM
- TGI (COLO 205 colon): 15.3 µM
- GI50 (UACC-62 melanoma): 5 µM
- TGI (UACC-62 melanoma): 10.2 µM
- GI50 (MOLT-4 leukemia): 4.84 µM
- TGI (MOLT-4 leukemia): 18.7 µM
- GI50 (NCI-H460 lung): 7.63 µM
- TGI (NCI-H460 lung): 15.3 µM
- GI50 (ACHN renal): 6.08 µM
- TGI (ACHN renal): 11.6 µM
- GI50 (HOP-92 NSCLC): 6.03 µM
- TGI (HOP-92 NSCLC): 12.4 µM
- GI50 (SN12C renal): 6.26 µM
- TGI (SN12C renal): 12 µM
- GI50 (SK-MEL-28 melanoma): 7.02 µM
- TGI (SK-MEL-28 melanoma): 12.9 µM
- GI50 (EKVX NSCLC): 5.3 µM
- TGI (EKVX NSCLC): 10.9 µM
- GI50 (NCI/ADR-RES ovarian): 5.72 µM
- TGI (NCI/ADR-RES ovarian): 11.8 µM
- GI50 (OVCAR-5 ovarian): 6.42 µM
- TGI (OVCAR-5 ovarian): 12.1 µM
- GI50 (U251 CNS): 6.57 µM
- TGI (U251 CNS): 12.7 µM
- GI50 (LOX IMVI melanoma): 4.97 µM
- TGI (LOX IMVI melanoma): 10.1 µM
- GI50 (OVCAR-3 ovarian): 6.95 µM
- TGI (OVCAR-3 ovarian): 13.9 µM
- GI50 (K-562 leukemia): 8.89 µM
- TGI (K-562 leukemia): 42 µM
- GI50 (MDA-MB-231 breast): 5.38 µM
- TGI (MDA-MB-231 breast): 10.8 µM
- GI50 (RXF 393 renal): 5.77 µM
- TGI (RXF 393 renal): 11.5 µM
- GI50 (HCC-2998 colon): 6.27 µM
- TGI (HCC-2998 colon): 12 µM
- GI50 (OVCAR-8 ovarian): 7.2 µM
- TGI (OVCAR-8 ovarian): 14.1 µM
- GI50 (SF-539 CNS): 7.02 µM
- TGI (SF-539 CNS): 12.8 µM
- GI50 (PC-3 prostate): 4.32 µM
- TGI (PC-3 prostate): 11.7 µM
- GI50 (MDA-MB-435): 7.01 µM
- TGI (MDA-MB-435): 13.6 µM
- GI50 (HT29 colon): 6.11 µM
- TGI (HT29 colon): 13.3 µM
- GI50 (SNB-75 CNS): 5.25 µM
- TGI (SNB-75 CNS): 11 µM
- GI50 (DU-145 prostate): 7.77 µM
- TGI (DU-145 prostate): 15.4 µM
- GI50 (SK-MEL-2 melanoma): 6.03 µM
- TGI (SK-MEL-2 melanoma): 12.1 µM
- GI50 (MALME-3M melanoma): 6.68 µM
- TGI (MALME-3M melanoma): 12.4 µM
- GI50 (UO-31 renal): 4.73 µM
- TGI (UO-31 renal): 9.79 µM
- GI50 (IGROV1 ovarian): 5.18 µM
- TGI (IGROV1 ovarian): 10.6 µM
- GI50 (M14 melanoma): 6.19 µM
- TGI (M14 melanoma): 13.6 µM
- GI50 (786-0 renal): 6.25 µM
- TGI (786-0 renal): 12.2 µM
- GI50 (UACC-257 melanoma): 6.79 µM
- TGI (UACC-257 melanoma): 12.9 µM
- GI50 (HS 578T breast): 6.96 µM
- TGI (HS 578T breast): 18.8 µM
- GI50 (SW-620 colon): 8.11 µM
- TGI (SW-620 colon): 16 µM
- GI50 (HCT-15 colon): 5.6 µM
- TGI (HCT-15 colon): 12.4 µM
- GI50 (OVCAR-4 ovarian): 7.17 µM
- TGI (OVCAR-4 ovarian): 16.3 µM
- GI50 (MCF7 breast): 7.26 µM
- TGI (MCF7 breast): 17.2 µM
- GI50 (TK-10 renal): 6.8 µM
- TGI (TK-10 renal): 13.2 µM
- GI50 (HOP-62 NSCLC): 6.99 µM
- TGI (HOP-62 NSCLC): 14.7 µM
- GI50 (T-47D breast): 5.14 µM
- TGI (T-47D breast): 12.9 µM
- GI50 (MDA-MB-468 breast): 4.86 µM
- TGI (MDA-MB-468 breast): 10.3 µM
- GI50 (CCRF-CEM leukemia): 5.9 µM
- TGI (CCRF-CEM leukemia): 19.8 µM
- GI50 (HCT-116 colon): 6.22 µM
- TGI (HCT-116 colon): 12.8 µM
- GI50 (SF-295 CNS): 5.63 µM
- TGI (SF-295 CNS): 11 µM
- GI50 (SF-268 CNS): 7 µM
- TGI (SF-268 CNS): 15.8 µM
- GI50 (HL-60(TB) leukemia): 7.96 µM
- TGI (HL-60(TB) leukemia): 25.6 µM
- GI50 (CAKI-1 renal): 5.19 µM
- TGI (CAKI-1 renal): 10.8 µM
- GI50 (BT-549 breast): 8.32 µM
- TGI (BT-549 breast): 14.6 µM
- GI50 (NCI-H226 lung): 5.37 µM
- TGI (NCI-H226 lung): 11.8 µM
- GI50 (NCI-H522 lung): 6.05 µM
- TGI (NCI-H522 lung): 12.5 µM
- GI50 (SR leukemia): 5.14 µM
- TGI (SR leukemia): 42 µM
- GI50 (RPMI-8226 leukemia): 8.61 µM
- TGI (RPMI-8226 leukemia): 29.9 µM
- GI50 (A498 renal): 5.89 µM
- TGI (A498 renal): 11.8 µM

Reference: PubChem BioAssay (NCI)
